Laboratory results from US9919034B2, “Methods of treating and prophylactically protecting mammalian patients infected by viruses classified in Baltimore group V” (priority 2014, dated 2018).

Tested on: Rabies virus
Type: cell-based

In the case of ranpirnase, the “activity against rabies (SI, FIG. 1)” value is reported as “extraordinarily active”.
